Assay results from US20250345384A1, “STABLE CYCLODEXTRIN FREE CARFILZOMIB FORMULATION” (AMGEN INC., priority 2020, published 2025).
≈ marks a conversion by molar mass, not a printed value.

Assays:
physchem = conditions: pH 7, water
[1] = Visual comparison of carfilzomib in water, cyclodextrin and cyclodextrin-free formulations (FIG. 2); format: physicochemical; conditions: CFZ-API concentration of 2 mg/mL
Excerpt: Carfilzomib (CFZ) is a proteasomal inhibitor and active ingredient of KYPROLIS®, a lyophilized drug product which is for the treatment of multiple myeloma. The current commercial formulation of KYPROLIS contains CAPTISOL®, which is a cyclodextrin used to help solubility the CFZ-API. The present invention provides a stable, cyclodextrin-free formulations for CFZ-API in an aqueous solution which is suitable for injection. FIG. 2 illustrates (a) insoluble CFZ-API in water (b) current commercial KYPROLIS formulation containing CAPTISOL (middle vial); and (c) the cyclodextrin free chlorobutanol formulation of the invention (right vial). Each sample contains CFZ-API concentration of 2 mg/mL.

solubility (physchem): 2 µg/mL (≈ 2.78 µM)
Visual solubility in water [1]: insoluble
Compound: CC(C)C[C@H](NC(=O)[C@H](CCc1ccccc1)NC(=O)CN1CCOCC1)C(=O)N[C@@H](Cc1ccccc1)C(=O)N[C@@H](CC(C)C)C(=O)[C@@]1(C)CO1 [CFZ-API, Carfilzomib]
